Measured values: patent US20160250213A1, “FORMULATIONS OF AZAINDOLE COMPOUNDS” (priority 2013, published 2016)
Values joined by “and” are separate entries in the source; they are usually repeats but may differ in a detail not shown here. Equal values may be shown once. Read-outs that look alike come from different tables or passages of the source. Marks after values point to notes of the source that are not given here.

Columns and labels:
A/Florida/3/2006 (H1N1) = assay: microbe, parasite or virus in culture; assay type: cell-based; settings: Influenza A virus, MDCK, read-out: Cell Protection Assay EC50 ± SD
A/Mal/302/54 (H1N1) = assay: microbe, parasite or virus in culture; assay type: cell-based; settings: Influenza A virus, MDCK, read-out: Cell Protection Assay EC50 ± SD
A/Georgia/17/2006 (H1N1) = assay: microbe, parasite or virus in culture; assay type: cell-based; settings: Influenza A virus, MDCK, read-out: Cell Protection Assay EC50 ± SD
A/Missouri/3/2006 (H1N1) = assay: microbe, parasite or virus in culture; assay type: cell-based; settings: Influenza A virus, MDCK, read-out: Cell Protection Assay EC50 ± SD
[1] = system: Influenza A/California/04/2009 (pndH1N1) virus; assay type: in vivo, BALB/c mice
A/FM/1/47 (H1N1) = assay: microbe, parasite or virus in culture; assay type: cell-based; settings: Influenza A virus, MDCK, read-out: Cell Protection Assay EC50 ± SD
[2] = system: A/Swine/Iowa/15/30 (H1N1); assay: microbe, parasite or virus in culture; assay type: cell-based; settings: Influenza A virus, H1N1, MDCK, in Sus scrofa, read-out: Cell Protection Assay EC50 ± SD
A/New Jersey/8/76 (H1N1) = assay: microbe, parasite or virus in culture; assay type: cell-based; settings: Influenza A virus, H1N1, MDCK, read-out: Cell Protection Assay EC50 ± SD
influenza A = system: influenza A; design: species or system mice; settings: mouse, in vivo
[3] = system: A/Virginia/ATCC3/2009 (H1N1); assay: microbe, parasite or virus in culture; assay type: cell-based; settings: Influenza A virus, MDCK, read-out: Cell Protection Assay EC50 ± SD
[4] = 1 mg/kg p.o. twice a day for 10 days starting 2 hours prior to virus exposure
[5] = 3 mg/kg p.o. twice a day for 10 days starting 2 hours prior to virus exposure
[6] = 10 mg/kg p.o. twice a day for 10 days starting 2 hours prior to virus exposure
[7] = 900 mg Day 1, 600 mg qd Days 2-5, N = 19
[8] = 1200 mg Day 1, 600 mg qd Days 2-5, N = 18
[9] = pooled Compound (1) groups, N = 72

Compound `O=C(O)[C@H]1C2CCC(CC2)C1Nc1nc(-c2c[nH]c3ncc(F)cc23)ncc1F` (stereo partly shown) [Compound (1)] has an EC50 (A/Florida/3/2006 (H1N1)) of 0.92 ± 1.5 nM, an EC50 (A/Mal/302/54 (H1N1)) of 0.57 ± 0.055 nM and an EC50 (A/Georgia/17/2006 (H1N1)) of 0.13 ± 0.048 nM. For the same compound, the EC50 (A/Missouri/3/2006 (H1N1)) was 0.21 ± 0.06 nM, the “Mean Lung Parameters (Day 6): Score (hemorrhage, 0 to 4)” value (shortened to “Mean Lung Parameters (Day 6): Score”) [1, 4] was 0.6 and the “Mean Lung Parameters (Day 6): Virus Titer” value [1, 4] was 5.5 Log10 CCID50/g. The “Mean Lung Parameters (Day 6): Weight” value [1, 4] was 246 mg, the “Mean Lung Parameters (Day 6): Score” value [1, 5] was 0.0 and the “Mean Lung Parameters (Day 6): Virus Titer” value [1, 5] was 3.1 Log10 CCID50/g. The “Mean Lung Parameters (Day 6): Weight” value [1, 5] was 123 mg, the “Mean Lung Parameters (Day 6): Score” value [1, 6] was 0.2 and the “Mean Lung Parameters (Day 6): Virus Titer” value [1, 6] was <2.6^d*** Log10 CCID50/g. The “Mean Lung Parameters (Day 6): Weight” value [1, 6] was 132 mg, the EC50 (A/FM/1/47 (H1N1)) was 0.57 ± 0.036 nM and the EC50 [2] was 0.65 ± 0.082 nM. For the same compound, the EC50 (A/New Jersey/8/76 (H1N1)) was 0.2 ± 0.096 nM, the “Log10 Reduction vs. Vehicle” value (influenza A) was −1.08 Log10 and the “Log10 Reduction vs. Vehicle” value (influenza A; 3 mg/kg) was −1.04 Log10. For the same compound, the “Lung Viral Titer” value (influenza A; 3 mg/kg) was 5.24 *** Log10 TCID50, the “Lung Viral Titer” value (influenza A; 10 mg/kg) was 5.20*** Log10 TCID50 and the “Lung Viral Titer” value (influenza A; 30 mg/kg) was 3.95 Log10 TCID50 and 4.53*** Log10 TCID50. For the same compound, the tolerability (100 mg to 1200/600 mg QD, five daily doses) was “well tolerated”, the “Adverse event: Alanine aminotransferase increased” value (100 mg, N = 16) was 3 (18.8) n(%) and the “Adverse event: Aspartate aminotransferase increased” value (100 mg, N = 16) was 1 (6.3) n(%). The “Adverse event: Blood phosphorus decreased” value (100 mg, N = 16) was 3 (18.8) n(%), the “Adverse event: Dermatitis contact” value (100 mg, N = 16) was 3 (18.8) n(%) and the “Adverse event: Headache” value (100 mg, N = 16) was 1 (6.3) n(%). The “Adverse event: Influenza-like illness” value (100 mg, N = 16) was 8 (50.0) n(%), the “Adverse event: Malaise” value (100 mg, N = 16) was 2 (12.5) n(%) and the “Adverse event: Nasal congestion” value (100 mg, N = 16) was 0 n(%). The “Adverse event: Nausea” value (100 mg, N = 16) was 0 n(%), the “Adverse event: Oropharylngeal pain” value (100 mg, N = 16) was 2 (12.5) n(%) and the “Adverse event: Rhinorrhea” value (100 mg, N = 16) was 0 n(%). The “Adverse event: Spirometry abnormal” value (100 mg, N = 16) was 2 (12.5) n(%), the “Adverse event: Tension Headache” value (100 mg, N = 16) was 0 n(%) and the “Adverse event: Alanine aminotransferase increased” value (400 mg, N = 19) was 1 (5.3) n(%). For the same compound, the “Adverse event: Aspartate aminotransferase increased” value (400 mg, N = 19) was 1 (5.3) n(%), the “Adverse event: Blood phosphorus decreased” value (400 mg, N = 19) was 0 n(%) and the “Adverse event: Dermatitis contact” value (400 mg, N = 19) was 0 n(%). The “Adverse event: Headache” value (400 mg, N = 19) was 4 (21.1) n(%), the “Adverse event: Influenza-like illness” value (400 mg, N = 19) was 10 (52.6) n(%) and the “Adverse event: Malaise” value (400 mg, N = 19) was 0 n(%). The “Adverse event: Nasal congestion” value (400 mg, N = 19) was 0 n(%), the “Adverse event: Nausea” value (400 mg, N = 19) was 2 (10.5) n(%) and the “Adverse event: Oropharylngeal pain” value (400 mg, N = 19) was 0 n(%). The “Adverse event: Rhinorrhea” value (400 mg, N = 19) was 2 (10.5) n(%), the “Adverse event: Spirometry abnormal” value (400 mg, N = 19) was 4 (21.1) n(%) and the “Adverse event: Tension Headache” value (400 mg, N = 19) was 2 (10.5) n(%). For the same compound, the “Adverse event: Alanine aminotransferase increased” value [7] was 0 n(%), the “Adverse event: Aspartate aminotransferase increased” value [7] was 0 n(%) and the “Adverse event: Blood phosphorus decreased” value [7] was 6 (31.6) n(%). For the same compound, the “Adverse event: Dermatitis contact” value [7] was 0 n(%), the “Adverse event: Headache” value [7] was 0 n(%) and the “Adverse event: Influenza-like illness” value [7] was 9 (47.4) n(%). The “Adverse event: Malaise” value [7] was 0 n(%), the “Adverse event: Nasal congestion” value [7] was 0 n(%) and the “Adverse event: Nausea” value [7] was 1 (5.3) n(%). For the same compound, the “Adverse event: Oropharylngeal pain” value [7] was 1 (5.3) n(%), the “Adverse event: Rhinorrhea” value [7] was 0 n(%) and the “Adverse event: Spirometry abnormal” value [7] was 0 n(%). For the same compound, the “Adverse event: Tension Headache” value [7] was 1 (5.3) n(%), the “Adverse event: Alanine aminotransferase increased” value [8] was 6 (33.3) n(%) and the “Adverse event: Aspartate aminotransferase increased” value [8] was 2 (11.1) n(%). The “Adverse event: Blood phosphorus decreased” value [8] was 4 (22.2) n(%), the “Adverse event: Dermatitis contact” value [8] was 0 n(%) and the “Adverse event: Headache” value [8] was 2 (11.1) n(%). For the same compound, the “Adverse event: Influenza-like illness” value [8] was 7 (38.9) n(%), the “Adverse event: Malaise” value [8] was 0 n(%) and the “Adverse event: Nasal congestion” value [8] was 1 (5.6) n(%). The “Adverse event: Nausea” value [8] was 0 n(%), the “Adverse event: Oropharylngeal pain” value [8] was 0 n(%) and the “Adverse event: Rhinorrhea” value [8] was 1 (5.6) n(%). The “Adverse event: Spirometry abnormal” value [8] was 4 (22.2) n(%), the “Adverse event: Tension Headache” value [8] was 0 n(%) and the “incidence of decreased blood phosphorus level” value (Compound (1) groups) was 18.1%. For the same compound, the “incidence of nasal congestion” value (Compound (1) groups) was 1.4%, the incidence of rhinorrhea (Compound (1) groups) was 4.2% and the “Adverse event: Alanine aminotransferase increased” value [9] was 10 (13.9) n(%). The “Adverse event: Aspartate aminotransferase increased” value [9] was 4 (5.6) n(%), the “Adverse event: Blood phosphorus decreased” value [9] was 13 (18.1) n(%) and the “Adverse event: Dermatitis contact” value [9] was 3 (4.2) n(%). For the same compound, the “Adverse event: Headache” value [9] was 7 (9.7) n(%), the “Adverse event: Influenza-like illness” value [9] was 34 (47.2) n(%) and the “Adverse event: Malaise” value [9] was 2 (2.8) n(%). For the same compound, the “Adverse event: Nasal congestion” value [9] was 1 (1.4) n(%), the “Adverse event: Nausea” value [9] was 3 (4.2) n(%) and the “Adverse event: Oropharylngeal pain” value [9] was 3 (4.2) n(%). The “Adverse event: Rhinorrhea” value [9] was 3 (4.2) n(%), the “Adverse event: Spirometry abnormal” value [9] was 10 (13.9) n(%) and the “Adverse event: Tension Headache” value [9] was 3 (4.2) n(%). It also gave an EC50 [3] of 1.9 ± 3.2 nM.
